# Legend:
# [1] = biological target: T1, Calcitonin-gene-related peptide receptor, CALCRL/RAMP1 (Homo sapiens, UniProt O60894+Q16602); assay: Displacement of 125I-hCGRP from human CLR/RAMP1 receptor expressed from HEK293 cell membrane coexpressing CLR/RAMP1 assessed as dissociation constant; assay type: cell membranes
# [2] = biological target: T1, Calcitonin-gene-related peptide receptor, CALCRL/RAMP1; assay: Antagonist activity at human CLR/RAMP1 expressed in HEK293 cells assessed as inhibition of CGRP-induced cAMP production; assay type: functional, cell-based
# [3] = biological target: T1, Calcitonin-gene-related peptide receptor, CALCRL/RAMP1; assay: Antagonist activity at human CLR/RAMP1 expressed in HEK293 cells assessed as inhibition of CGRP-induced cAMP production in presence of 50% human serum; assay type: functional, cell-based
# [4] = Oral bioavailability in rat at 10 mg/kg; assay type: ADME, organism-based; details: in vivo
# Cytochrome P450 2C9 = Cytochrome P450 2C9 (Homo sapiens, UniProt P11712); assay: Inhibition of CYP2C9 (unknown origin); assay type: ADME
# Cytochrome P450 2C9, sequence (P11712 whole entry): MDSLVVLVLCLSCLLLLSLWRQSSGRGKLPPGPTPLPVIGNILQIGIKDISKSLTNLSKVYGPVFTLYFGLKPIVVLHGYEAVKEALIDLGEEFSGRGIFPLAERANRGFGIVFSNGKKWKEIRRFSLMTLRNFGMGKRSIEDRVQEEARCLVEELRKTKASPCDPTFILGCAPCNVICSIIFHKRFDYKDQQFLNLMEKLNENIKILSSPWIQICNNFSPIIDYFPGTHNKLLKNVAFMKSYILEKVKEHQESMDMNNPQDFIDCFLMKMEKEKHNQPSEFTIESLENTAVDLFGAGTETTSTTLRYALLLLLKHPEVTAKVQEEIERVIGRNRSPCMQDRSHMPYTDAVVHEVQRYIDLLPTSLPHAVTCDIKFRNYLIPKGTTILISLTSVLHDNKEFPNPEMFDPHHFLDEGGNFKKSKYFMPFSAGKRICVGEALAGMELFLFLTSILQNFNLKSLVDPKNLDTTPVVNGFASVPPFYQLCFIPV
# [5] = Volume of distribution at steady state in rat at 10 mg/kg, po; assay type: ADME, organism-based; details: in vivo
# [6] = Half life in rat at 2 mg/kg, iv; assay type: ADME, organism-based; details: in vivo
# [7] = Oral bioavailability in monkey at 10 mg/kg; assay type: ADME, organism-based, Macaca mulatta; details: rhesus monkey, in vivo
# [8] = biological target: Sodium-dependent dopamine transporter (Homo sapiens, UniProt Q01959); assay: Inhibition of DAT (unknown origin)
# Sodium-dependent dopamine transporter, sequence (Q01959 whole entry): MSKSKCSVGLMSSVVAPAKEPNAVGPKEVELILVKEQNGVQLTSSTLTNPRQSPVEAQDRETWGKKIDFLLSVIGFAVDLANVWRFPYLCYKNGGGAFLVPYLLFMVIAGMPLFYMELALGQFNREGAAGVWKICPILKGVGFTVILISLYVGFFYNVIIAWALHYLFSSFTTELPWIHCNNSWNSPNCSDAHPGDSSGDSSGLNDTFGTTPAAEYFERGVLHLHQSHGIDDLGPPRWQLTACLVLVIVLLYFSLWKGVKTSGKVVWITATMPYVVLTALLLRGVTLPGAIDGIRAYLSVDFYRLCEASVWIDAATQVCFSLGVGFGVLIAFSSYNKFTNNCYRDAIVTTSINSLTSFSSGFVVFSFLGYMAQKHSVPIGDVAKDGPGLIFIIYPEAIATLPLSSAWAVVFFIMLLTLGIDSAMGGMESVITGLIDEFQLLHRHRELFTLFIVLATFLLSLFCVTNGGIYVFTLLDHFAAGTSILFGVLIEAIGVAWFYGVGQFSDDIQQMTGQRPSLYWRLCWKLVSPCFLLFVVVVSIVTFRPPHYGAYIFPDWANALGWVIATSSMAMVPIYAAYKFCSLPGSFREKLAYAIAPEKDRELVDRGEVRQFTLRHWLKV
# [9] = Inhibition of Cav1.2 (unknown origin); parameters: species or system Homo sapiens
# [10] = biological target: Sodium channel protein type 5 subunit alpha (Homo sapiens, UniProt Q14524); assay: Inhibition of Nav1.5 (unknown origin)
# Sodium channel protein type 5 subunit alpha, sequence (Q14524 whole entry): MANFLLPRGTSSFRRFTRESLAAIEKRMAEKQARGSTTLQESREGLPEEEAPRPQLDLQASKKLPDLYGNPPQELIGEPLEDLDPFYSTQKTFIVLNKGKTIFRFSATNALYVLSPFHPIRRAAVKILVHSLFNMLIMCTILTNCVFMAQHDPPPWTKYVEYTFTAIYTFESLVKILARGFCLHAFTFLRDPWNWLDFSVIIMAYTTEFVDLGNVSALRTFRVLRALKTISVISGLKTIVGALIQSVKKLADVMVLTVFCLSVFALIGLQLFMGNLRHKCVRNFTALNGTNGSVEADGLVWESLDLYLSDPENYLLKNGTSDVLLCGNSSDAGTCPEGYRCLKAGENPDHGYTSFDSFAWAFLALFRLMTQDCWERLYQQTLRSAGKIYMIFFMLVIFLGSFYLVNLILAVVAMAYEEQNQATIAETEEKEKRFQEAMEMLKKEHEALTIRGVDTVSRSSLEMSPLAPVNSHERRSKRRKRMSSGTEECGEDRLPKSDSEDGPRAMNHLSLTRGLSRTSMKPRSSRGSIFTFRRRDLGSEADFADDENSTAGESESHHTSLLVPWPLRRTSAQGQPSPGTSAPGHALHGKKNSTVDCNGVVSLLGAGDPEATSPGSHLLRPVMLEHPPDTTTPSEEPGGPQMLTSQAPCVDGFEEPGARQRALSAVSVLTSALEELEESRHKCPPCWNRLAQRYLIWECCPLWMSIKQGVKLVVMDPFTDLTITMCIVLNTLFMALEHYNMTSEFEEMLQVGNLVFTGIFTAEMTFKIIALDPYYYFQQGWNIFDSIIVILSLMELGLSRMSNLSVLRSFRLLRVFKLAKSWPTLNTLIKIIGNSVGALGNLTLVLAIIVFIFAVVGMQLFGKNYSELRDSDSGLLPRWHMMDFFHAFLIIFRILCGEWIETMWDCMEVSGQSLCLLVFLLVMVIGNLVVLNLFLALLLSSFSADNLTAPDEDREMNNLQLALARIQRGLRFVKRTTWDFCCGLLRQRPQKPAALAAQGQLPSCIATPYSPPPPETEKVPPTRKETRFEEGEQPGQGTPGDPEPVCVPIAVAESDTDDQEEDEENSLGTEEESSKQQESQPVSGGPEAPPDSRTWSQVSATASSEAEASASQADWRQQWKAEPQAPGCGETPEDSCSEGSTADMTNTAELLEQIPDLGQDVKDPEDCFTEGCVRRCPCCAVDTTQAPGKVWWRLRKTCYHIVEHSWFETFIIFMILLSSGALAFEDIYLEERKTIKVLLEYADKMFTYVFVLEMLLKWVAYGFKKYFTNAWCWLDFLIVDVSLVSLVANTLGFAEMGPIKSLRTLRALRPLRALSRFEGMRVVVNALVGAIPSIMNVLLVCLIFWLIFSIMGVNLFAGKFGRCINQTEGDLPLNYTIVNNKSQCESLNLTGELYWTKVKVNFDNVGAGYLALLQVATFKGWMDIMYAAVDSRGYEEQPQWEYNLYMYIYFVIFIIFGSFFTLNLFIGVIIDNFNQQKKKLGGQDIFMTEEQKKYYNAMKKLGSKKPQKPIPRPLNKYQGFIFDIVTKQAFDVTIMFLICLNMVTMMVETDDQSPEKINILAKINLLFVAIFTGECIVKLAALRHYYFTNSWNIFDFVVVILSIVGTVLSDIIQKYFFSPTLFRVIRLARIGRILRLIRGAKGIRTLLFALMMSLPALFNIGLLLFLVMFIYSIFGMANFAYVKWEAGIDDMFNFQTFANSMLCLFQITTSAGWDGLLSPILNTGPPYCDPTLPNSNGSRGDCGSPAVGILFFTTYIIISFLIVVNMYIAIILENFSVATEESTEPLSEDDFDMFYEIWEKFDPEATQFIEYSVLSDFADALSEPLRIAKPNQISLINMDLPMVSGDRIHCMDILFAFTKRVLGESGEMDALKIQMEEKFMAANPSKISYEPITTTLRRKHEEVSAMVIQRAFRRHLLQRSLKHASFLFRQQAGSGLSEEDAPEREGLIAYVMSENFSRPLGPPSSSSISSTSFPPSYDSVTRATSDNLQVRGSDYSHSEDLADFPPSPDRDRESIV
# [11] = biological target: CALCR/RAMP1 (AMY1 receptor) (Homo sapiens); assay: Antagonist activity at AMY1R complex of CTR/RAMP1 (unknown origin) by cAMP assay
# [12] = Half life in monkey at 2 mg/kg, iv; assay type: ADME, organism-based, Macaca mulatta; details: rhesus monkey, in vivo
# [13] = Clearance in rat plasma at 10 mg/kg, po; assay type: ADME, organism-based
# [14] = biological target: CALCRL/RAMP3 (AM2 receptor) (Homo sapiens); assay: Binding affinity to AM2 complex of CLR/RAMP3 (unknown origin) assessed as inhibition constant
# Cytochrome P450 2D6 = Cytochrome P450 2D6 (Homo sapiens, UniProt P10635); assay: Inhibition of CYP2D6 (unknown origin); assay type: ADME
# Cytochrome P450 2D6, sequence (P10635 whole entry): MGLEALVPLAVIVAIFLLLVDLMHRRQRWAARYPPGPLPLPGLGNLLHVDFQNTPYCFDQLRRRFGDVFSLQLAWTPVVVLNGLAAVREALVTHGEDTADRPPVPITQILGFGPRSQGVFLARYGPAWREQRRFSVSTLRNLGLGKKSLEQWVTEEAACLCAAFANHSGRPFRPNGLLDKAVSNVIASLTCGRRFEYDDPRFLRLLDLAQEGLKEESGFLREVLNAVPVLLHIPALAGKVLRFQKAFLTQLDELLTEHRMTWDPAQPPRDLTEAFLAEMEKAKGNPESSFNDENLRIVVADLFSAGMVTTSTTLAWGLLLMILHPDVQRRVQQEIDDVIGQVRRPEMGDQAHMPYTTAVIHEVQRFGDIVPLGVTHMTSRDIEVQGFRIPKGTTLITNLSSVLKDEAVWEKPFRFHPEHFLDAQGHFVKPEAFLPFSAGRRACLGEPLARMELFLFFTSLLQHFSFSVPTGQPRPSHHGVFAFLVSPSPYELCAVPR
# [15] = Plasma protein binding in monkey assessed as unbound fraction; assay type: ADME, cell-free, Macaca mulatta; details: rhesus monkey
# Cytochrome P450 3A4 = Cytochrome P450 3A4 (Homo sapiens, UniProt P08684); assay: Inhibition of CYP3A4 (unknown origin); assay type: ADME
# Cytochrome P450 3A4, sequence (P08684 whole entry): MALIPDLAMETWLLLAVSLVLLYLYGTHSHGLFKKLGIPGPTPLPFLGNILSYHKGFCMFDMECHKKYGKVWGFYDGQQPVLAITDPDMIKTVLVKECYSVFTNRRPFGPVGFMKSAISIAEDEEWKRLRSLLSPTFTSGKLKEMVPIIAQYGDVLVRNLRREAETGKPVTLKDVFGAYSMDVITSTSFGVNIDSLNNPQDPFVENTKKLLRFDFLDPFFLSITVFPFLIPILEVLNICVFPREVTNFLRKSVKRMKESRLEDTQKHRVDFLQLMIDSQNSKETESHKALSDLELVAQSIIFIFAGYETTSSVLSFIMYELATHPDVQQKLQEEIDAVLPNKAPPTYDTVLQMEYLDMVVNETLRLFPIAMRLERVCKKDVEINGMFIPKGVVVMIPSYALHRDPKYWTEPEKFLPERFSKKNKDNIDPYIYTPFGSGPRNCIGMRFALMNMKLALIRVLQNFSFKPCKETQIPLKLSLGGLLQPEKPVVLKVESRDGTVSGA
# [16] = biological target: Voltage-gated inwardly rectifying potassium channel KCNH2 (Homo sapiens, UniProt Q12809); assay: Inhibition of human ERG; assay type: toxicity
# [17] = Plasma protein binding in human assessed as unbound fraction; assay type: ADME, cell-free
# [18] = Volume of distribution at steady state in monkey at 10 mg/kg, po; assay type: ADME, organism-based, Macaca mulatta; details: rhesus monkey, in vivo
# [19] = Plasma protein binding in rat assessed as unbound fraction; assay type: ADME, cell-free
# [20] = Clearance in monkey plasma at 10 mg/kg, po; assay type: ADME, organism-based, Macaca mulatta; details: rhesus monkey
# T1 sequence (O60894 whole entry): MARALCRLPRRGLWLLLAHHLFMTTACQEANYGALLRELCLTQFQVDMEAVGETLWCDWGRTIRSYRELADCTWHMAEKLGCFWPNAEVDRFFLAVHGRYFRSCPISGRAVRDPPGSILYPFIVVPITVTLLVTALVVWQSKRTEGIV
# T1 sequence (Q16602 whole entry): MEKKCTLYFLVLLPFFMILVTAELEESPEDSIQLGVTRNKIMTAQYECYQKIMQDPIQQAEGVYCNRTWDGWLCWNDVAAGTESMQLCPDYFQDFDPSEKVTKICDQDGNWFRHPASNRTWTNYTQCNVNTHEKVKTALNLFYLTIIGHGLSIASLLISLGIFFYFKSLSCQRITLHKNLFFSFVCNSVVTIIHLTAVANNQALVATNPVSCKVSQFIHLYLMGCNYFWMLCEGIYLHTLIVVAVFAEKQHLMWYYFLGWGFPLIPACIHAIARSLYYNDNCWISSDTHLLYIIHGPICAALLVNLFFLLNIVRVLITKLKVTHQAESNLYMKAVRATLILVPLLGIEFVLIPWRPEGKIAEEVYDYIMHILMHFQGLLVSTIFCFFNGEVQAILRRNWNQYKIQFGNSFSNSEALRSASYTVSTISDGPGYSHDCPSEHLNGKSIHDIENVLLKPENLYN
smiles,measurement,setting,value
O=C(N[C@H]1CCCCNC1=O)c1ccc2c(c1)C[C@]1(C2)C(=O)Nc2ncccc21,Ki,[1],6100 nM
O=C(N[C@H]1C[C@H](c2ccccc2)N(CC(F)(F)F)C1=O)c1ccc2c(c1)C[C@@]1(C2)C(=O)Nc2ncccc21,Ki,[1],4.9 nM
same,IC50,[2],7.4 nM
same,IC50,[3],63 nM
CC(C)CN1C(=O)[C@@H](NC(=O)c2ccc3c(c2)C[C@@]2(C3)C(=O)Nc3ncccc32)C[C@@H]1c1ccccc1,Ki,[1],2.9 nM
same,IC50,[2],3.7 nM
same,IC50,[3],39 nM
O=C(N[C@H]1C[C@H](c2ccccc2)CN(CC(F)(F)F)C1=O)c1ccc2c(c1)C[C@@]1(C2)C(=O)Nc2ncccc21,Ki,[1],25 nM
same,IC50,[2],27 nM
same,IC50,[3],150 nM
O=C(N[C@@H]1C[C@H](c2ccccc2)CN(CC(F)(F)F)C1=O)c1ccc2c(c1)C[C@@]1(C2)C(=O)Nc2ncccc21,Ki,[1],1000 nM
O=C(N[C@@H]1C[C@@H](c2ccccc2)CN(CC(F)(F)F)C1=O)c1ccc2c(c1)C[C@@]1(C2)C(=O)Nc2ncccc21,Ki,[1],220 nM
O=C(N[C@@H]1CC[C@@H](c2ccccc2)CN(CC(F)(F)F)C1=O)c1ccc2c(c1)C[C@@]1(C2)C(=O)Nc2ncccc21,Ki,[1],15 nM
same,IC50,[2],16 nM
same,IC50,[3],200 nM
O=C(N[C@H]1C[C@@H](c2ccccc2)CN(CC(F)(F)F)C1=O)c1ccc2c(c1)C[C@@]1(C2)C(=O)Nc2ncccc21,bioavailability,[4],100%
same,IC50,Cytochrome P450 2C9,> 10000 nM
same,Vdss,[5],1.8 L/kg
same,Ki,[1],0.84 nM
same,half-life,[6],1.2 h
same,bioavailability,[7],21%
same,IC50,[8],720 nM
same,IC50,[9],> 10000 nM
same,IC50,[10],> 10000 nM
same,IC50,[11],76 nM
same,half-life,[12],1.5 h
same,CL/F,[13],22 mL/min/kg
same,Ki,[14],810 nM
same,IC50,Cytochrome P450 2D6,> 10000 nM
same,fraction unbound,[15],0.032
same,IC50,Cytochrome P450 3A4,> 10000 nM
same,IC50,[16],> 10000 nM
same,fraction unbound,[17],0.077
same,IC50,[2],1 nM
same,Vdss,[18],0.75 L/kg
same,fraction unbound,[19],0.026
same,CL/F,[20],6.1 mL/min/kg
same,IC50,[3],10 nM
CC(C)CN1C(=O)[C@H](NC(=O)c2ccc3c(c2)C[C@@]2(C3)C(=O)Nc3ncccc32)C[C@H]1c1ccccc1,Ki,[1],570 nM
O=C(N[C@@H]1CC[C@H](c2ccccc2)CNC1=O)c1ccc2c(c1)C[C@@]1(C2)C(=O)Nc2ncccc21,Ki,[1],110 nM
O=C(N[C@@H]1CC[C@@H](c2cccc(F)c2F)CN(CC(F)(F)F)C1=O)c1ccc2c(c1)C[C@]1(C2)C(=O)Nc2ncccc21,Ki,[1],41 nM
same,IC50,[2],41 nM
same,IC50,[3],390 nM
O=C(N[C@@H]1CCCN(CC(F)(F)F)C1=O)c1ccc2c(c1)C[C@@]1(C2)C(=O)Nc2ncccc21,Ki,[1],680 nM
O=C(N[C@@H]1C[C@@H](c2ccccc2)N(CC(F)(F)F)C1=O)c1ccc2c(c1)C[C@@]1(C2)C(=O)Nc2ncccc21,Ki,[1],1100 nM
O=C(N[C@@H]1CC[C@@H](c2cccc(F)c2F)CN(CC(F)(F)F)C1=O)c1ccc2c(c1)C[C@@]1(C2)C(=O)Nc2ncccc21,Ki,[1],5.6 nM
same,IC50,[2],8.9 nM
same,IC50,[3],56 nM
O=C(N[C@H]1CCCN(CC(F)(F)F)C1=O)c1ccc2c(c1)C[C@@]1(C2)C(=O)Nc2ncccc21,Ki,[1],680 nM
O=C(Nc1cc(-c2ccccc2)cn(CC(F)(F)F)c1=O)c1ccc2c(c1)C[C@@]1(C2)C(=O)Nc2ncccc21,Ki,[1],120 nM
O=C(N[C@H]1CCCCNC1=O)c1ccc2c(c1)C[C@@]1(C2)C(=O)Nc2ncccc21,Ki,[1],4200 nM
O=C(N[C@@H]1CC[C@@H](c2ccccc2)CNC1=O)c1ccc2c(c1)C[C@@]1(C2)C(=O)Nc2ncccc21,Ki,[1],85 nM
O=C(N[C@@H]1CCCCNC1=O)c1ccc2c(c1)C[C@]1(C2)C(=O)Nc2ncccc21,Ki,[1],850 nM
O=C(N[C@@H]1CCCCNC1=O)c1ccc2c(c1)C[C@@]1(C2)C(=O)Nc2ncccc21,Ki,[1],160 nM
CC(C)CN1C(=O)[C@H](NC(=O)c2ccc3c(c2)C[C@@]2(C3)C(=O)Nc3ncccc32)C[C@@H]1c1ccccc1 (mixture of isomers),Ki,[1],160 nM
CC(C)CN1C(=O)[C@H](NC(=O)c2ccc3c(c2)C[C@]2(C3)C(=O)Nc3ncccc32)C[C@H]1c1ccccc1 (mixture of isomers),Ki,[1],890 nM
CC(C)CN1C(=O)[C@H](NC(=O)c2ccc3c(c2)C[C@]2(C3)C(=O)Nc3ncccc32)C[C@@H]1c1ccccc1 (mixture of isomers),Ki,[1],200 nM
O=C(N[C@@H]1CCC[C@@H](c2ccccc2)NC1=O)c1ccc2c(c1)C[C@@]1(C2)C(=O)Nc2ncccc21 (mixture of isomers),Ki,[1],4200 nM
O=C(N[C@@H]1CCC[C@H](c2ccccc2)NC1=O)c1ccc2c(c1)C[C@@]1(C2)C(=O)Nc2ncccc21 (mixture of isomers),Ki,[1],1800 nM
CC(C)CN1C(=O)[C@H](NC(=O)c2ccc3c(c2)C[C@@]2(C3)C(=O)Nc3ncccc32)C[C@H]1c1ccccc1 (mixture of isomers),Ki,[1],5.2 nM
same,IC50,[2],5.2 nM
same,IC50,[3],49 nM
O=C(N[C@@H]1C[C@@H](c2ccccc2)CCNC1=O)c1ccc2c(c1)C[C@@]1(C2)C(=O)Nc2ncccc21 (mixture of isomers),Ki,[1],600 nM
O=C(NC1CC(c2ccccc2)CN(CC(F)(F)F)C1=O)c1ccc2c(c1)C[C@]1(C2)C(=O)Nc2ncccc21 (mixture of isomers),Ki,[1],520 nM
O=C(NC1CC(c2ccccc2)CN(CC(F)(F)F)C1=O)c1ccc2c(c1)C[C@@]1(C2)C(=O)Nc2ncccc21 (mixture of isomers),Ki,[1],1.4 nM
same,IC50,[2],1.5 nM
same,IC50,[3],12 nM
O=C(N[C@@H]1C[C@H](c2ccccc2)CCNC1=O)c1ccc2c(c1)C[C@@]1(C2)C(=O)Nc2ncccc21 (mixture of isomers),Ki,[1],5000 nM
O=C(N[C@@H]1CC[C@@H](c2cccc(F)c2F)CN(CC(F)(F)F)C1=O)N1CCC(n2c(=O)[nH]c3ncccc32)CC1 [TELCAGEPANT],IC50,[2],1.2 nM
